This test deals with ATXN1(60Q). The test can be described thus: Daoy-ATXN1(60Q)-mATXN1 MSD assay (CTG normalized). The class given is cell-based. The method, then: Protocol for MSD Assay: Daoy-ATXN1(600)-mATXN1 MSD (CTG normalized)
The Flag-ATXN1(60Q) gene is synthesized by Genescript and cloned into the pLVX-IRES-Puro vector (Takarabio, catalog No. 632183) using EcoRI/BamHI restriction enzyme sites. Lentivirus is made by transfecting HEK293T cells with pLVX-IRES-Puro-Flag-ATXN1(60Q) plasmids and packaging plasmids psPAX2 and pMD2.G at 4:3:1 ratio (8:6:[…], respectively) in 10 cm plates, and are harvested at 48 hours post transfection. Daoy cells (ATCC catalog No. HTB-186) seeded in T25 flasks are infected with the lentivirus in the presence of 8 µg/mL polybrene (Sigma, TR-1003-G) for 24 hours. 48 hours post infection, the cells are selected using 0.5 […] (Sigma, P8833) for more than 5 days until all cells in the uninfected group die. The expression of Flag-ATXN1(60Q) is verified by anti-Flag immunoblot using anti-Flag antibody (Sigma, F1804-200UG, M2).
As explained above, Daoy-Flag-ATXN1(60Q) cells are prepared as a stable cell line by infecting Daoy cells with lentivirus. The media for the cells is EMEM (ATTC, 30-2008) with 10% fetal bovin serum (FBS).
On Day 1, the Daoy-Flag-ATXN1(60Q) cells are seeded in a 96 well plate at a concentration of 1.2×10^4/well. On Day 2, the cells are treated with test compounds at test concentrations (compounds are serially diluted with DMSO to obtain test concentrations, such that final DMSO concentration is 0.3%). On Day 3, the cells are washed with 100 μL of phosphate-buffered saline (PBS) per well, and then 30 μL of radioimmuno-precipitation assay (RIPA) buffer (with protease and phosphatase inhibitor cocktail) is added to each well.
The well plate is then cooled on ice for 30 minutes in order to complete lysis, and MSD samples are prepared using 10 μL of Daoy-Flag-ATXN1-60Q lysate and 90 μL of RIPA buffer with gentle mixing. Each MSD sample has a total volume of 100 μL, and is used immediately or stored at −80° C.
A standard Meso Scale Discovery (MSD) plate is coated with anti-Flag (Sigma, F1804-200UG, M2) in PBS at 1:500 dilution ratio and 40 µL/well, and is incubated at 4° C. overnight with shaking at 600 rpm. Then, the MSD plate is washed 3 times with 150 µL/well of 1X TBST (tris-buffered saline (TBS) with Tween 20) buffer, and the MSD plate is blocked with 150 μL of blocking buffer [3% Blocker A in 1X TBST, (3 g Blocker A per 100 mL 1X TBST)] and shaken for 1 hour at 600 rpm at room temperature. Then, the MSD plate is washed three times with 150 μL/well of 1X TBST. Next, the diluted lysate samples (from Sample Preparation above) are added to the MSD plate at 25 μL/well, and the MSD plate is shaken at 600 rpm for 1 hour at room temperature. Then the MSD plate is washed 3 times with 150 μL/well of 1X TBST.
Detection antibody anti-Ataxin 1 (G-bio, ITA1916) (1:500), which is prepared in antibody detection buffer (1% Blocker A in 1X TBST), is then added to the MSD plate at 25 µL/well, and the MSD plate is shaken at 600 rpm for 1 hour at room temperature. The MSD plate is then washed three times with 150 μL/well of 1X TBST. Next, a secondary detection antibody, Goat anti-rabit (GAR) with SULFO-TAG (1:500), which is prepared in antibody detection buffer (1% Blocker A in 1X TBST), is added at 25 μL/well and the MSD plate is shaken at 600 rpm for 1 hour at room temperature. Then the MSD plate is washed 3 times with 150 μL/well of 1X TBST, and 2X MSD reading buffer is added at 150 μL/well (diluted from 4x MSD reading buffer with water). Finally, the signal from each well is measured on the MSD Meso QuickPle SQ120 Plate Reader. DC50 data is calculated using collaborate drug discovery (CDD) software (https://www.collaborativedrug.com/about).

[1] abbreviates: Daoy-Flag-ATXN1(60Q) stable cells, compound added Day 2, lysis Day 3, final DMSO 0.3%, read-out: Daoy-ATXN1(60Q)-mATXN1 MSD (CTG normalized) DC50.

Like-named read-outs stand apart in the source and are kept apart here.

With `CCCN/C(=C1\C(=O)Nc2ccc(Br)cc21)c1cccc(O)c1` [Example 5, (Z)-5-bromo-3-((3-hydroxyphenyl) (propylamino)methylene) indolin-2-one], the DC50 (read-out: Daoy-ATXN1(60Q)-mATXN1 MSD (CTG normalized) DC50, Daoy-Flag-ATXN1(60Q) stable cells, compound added Day 2, lysis Day 3, final DMSO 0.3%) is less than 10 µM.
In the case of `O=C1Nc2ccc(Br)cc2/C1=C(/Nc1c[nH]nc1Cl)c1ccccc1` [Example 54, (Z)-5-bromo-3-((3-chloro-1H-pyrazol-4-ylamino)(phenyl)methylene)indolin-2-one], under setting [1], the DC50 is greater than 30 µM.
With `NCCN/C(=C1\C(=O)Nc2ccc(Br)cc21)c1ccc2[nH]c(=O)oc2c1` [Example 57, (Z)-6-(((2-aminoethyl)amino)(5-bromo-2-oxoindolin-3-ylidene)methyl) benzo[d]oxazol-2(3H)-one], the DC50 under setting [1] is 10 to 30 µM.
Still for that read-out and setting: in the case of `NCCN/C(=C1\C(=O)Nc2ccc(Br)cc21)c1cccc(O)c1` [Example 27, (Z)-3-(((2-aminoethyl)amino)(3-hydroxyphenyl)methylene)-5-bromo indolin-2-one] it was less than 10 µM.
With `N/C(=C1\C(=O)Nc2ccc(Br)cc21)c1ncccn1` [Example 78, (Z)-3-(amino (pyrimidin-2-yl)methylene)-5-bromoindolin-2-one], the DC50 under setting [1] was greater than 30 µM.
In the case of `O=C1Nc2ccc(Br)cc2/C1=C(/Nc1cnn(CCO)c1)c1ccccc1` [Example 53, (Z)-5-bromo-3-(((1-(2-hydroxyethyl)-1H-pyrazol-4-yl)amino)(phenyl)methylene)indolin-2-one], the DC50 under setting [1] was in the range of 10 to 30 µM.
Still for that read-out and setting: in the case of `Cn1cc(N/C(=C2\C(=O)Nc3ccc(Br)cc32)c2cccc(F)c2)cn1` [Example 21, (Z)-5-bromo-3-((3-fluorophenyl)((1-methyl-1H-pyrazol-4-yl)amino)methylene) indolin-2-one] it was greater than 30 µM.
The same measure, in the same setting: the figure for `O=C1Nc2ccc(Br)cc2/C1=C(/Nc1cccnc1)c1cccc(O)c1` [Example 66, (Z)-5-bromo-3-((3-hydroxyphenyl) (pyridin-3-ylamino)methylene)indolin-2-one] is less than 10 µM.
On to `Nc1cccc(/C(Nc2ccnnc2)=C2/C(=O)Nc3ccc(Br)cc32)c1` [Example 60, (Z)-3-((3-aminophenyl) (pyridazin-4-ylamino)methylene)-5-bromo indolin-2-one], for which, under setting [1], the DC50 was less than 10 µM.
Turning to `CN/C(=C1\C(=O)Nc2ccc(Br)cc21)c1cccc(O)c1` [Example 1, (Z)-5-bromo-3-((3-hydroxyphenyl) (methylamino)methylene) indolin-2-one], the DC50 under setting [1] is less than 10 µM.
Still for that read-out and setting: the figure for `O=C1Nc2ccc(Br)cc2/C1=C(/Nc1cnnc(Cl)c1)c1ccccc1` [Example 47, (Z)-5-bromo-3-((6-chloropyridazin-4-ylamino)(phenyl)methylene)indolin-2-one] is greater than 30 µM.
